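Method: 48-hour compound exposure of cells in 96-well plates, five concentrations, linear interpolation of endpoints. At the GI50, growth is halved.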 Active and inactive are the calls of the source. No stated cut-off is given here; in the data, active = GI50 up to about 1.1 µM and inactive = higher.
What was measured:
Assay in all cases: growth of human tumour cells (NCI), 48 h
MOLT-4 = test system: MOLT-4
SF-295 = test system: SF-295
MDA-N = test system: MDA-N
SNB-19 = test system: SNB-19
COLO 205 = test system: COLO 205
Hs-578T = test system: Hs-578T
UACC-257 = test system: UACC-257
UO-31 = test system: UO-31
T47D = test system: T47D
NCI-H226 = test system: NCI-H226
A498 = test system: A498
MDA-MB-435 = test system: MDA-MB-435
SNB-75 = test system: SNB-75
U-251 = test system: U-251
SK-MEL-28 = test system: SK-MEL-28
CAKI-1 = test system: CAKI-1
TK-10 = test system: TK-10
DU-145 = test system: DU-145
786-0 = test system: 786-0
SK-MEL-5 = test system: SK-MEL-5

Measured: GI50

COc1ccc(C(=O)O[C@H]2CC[C@@]3(C)[C@@H]4CC[C@H]5[C@]6(O)C[C@H](O)[C@@]7(O)[C@@H](CN8C[C@@H](C)CC[C@H]8[C@@]7(C)O)[C@]6(O)C[C@@]53OC24O)cc1OC [VERATRIDINE]
inactive: MOLT-4 95.5 µM | SF-295 > 100 µM | MDA-N > 100 µM | SNB-19 > 100 µM | COLO 205 > 100 µM | Hs-578T > 100 µM | UACC-257 71.3 µM | UO-31 > 100 µM | T47D > 100 µM | NCI-H226 44.3 µM | A498 > 100 µM | MDA-MB-435 > 100 µM | SNB-75 23.4 µM | U-251 > 100 µM | SK-MEL-28 > 100 µM | CAKI-1 > 100 µM | TK-10 > 100 µM | DU-145 > 100 µM | 786-0 > 100 µM | SK-MEL-5 > 100 µM
